Experimental data published in article PMC10253456, “Investigating the Contribution of Major Drug-Metabolising Enzymes to Possum-Specific Fertility Control” (International Journal of Molecular Sciences, 2023).
Like-named read-outs stand apart in the source and are kept apart here.

Key:
CYP3A [1] = conditions: avian; for % of control (catalytic activity at 2-fold IC50) / Catalytic activity at 2-fold IC50: compound at estimated 2-fold IC50 (5 µM where none reported)
Method: (§1) Possums were collected from the Otago Peninsula (Dunedin) and the Okuti Valley, Banks Peninsula (Christchurch) in New Zealand in collaboration with the Otago Peninsula Biodiversity Group and Manaaki Whenua-Landcare Research, respectively. […] Possums were caged and humanely killed by a blow to the head, and the livers were harvested, snap-frozen in liquid nitrogen, and stored in a freezer at −80 °C until the preparation of microsomal fractions. […] Mice were euthanised by carbon dioxide inhalation and the livers were removed and microsomes prepared. […] The livers from avian species (mallards and a swan) were kindly donated by a local bird hunting group based in Dunedin, New Zealand. The livers from avian species were treated similarly to those mentioned above for the possum samples.
(§2) Microsomal preparation was carried out as previously described [76]. […] All procedures were performed at 0–4 °C. The liver samples were minced and homogenised in Buffer A (0.1 M Tris, 0.1 M potassium chloride, 1 mM EDTA, and 20 μM butylated hydroxytoluene, at pH = 7.4) using the Teflon-glass homogeniser (5–6 vertical passes). The samples were centrifuged at 10,000× g for 20 min. The supernatant was then transferred into another set of centrifuge tubes and spun at 100,000× g for 60 min. The pellet was resuspended in Buffer B (0.1 M potassium pyrophosphate, 1 mM EDTA, and 20 μM butylated hydroxytoluene, at pH = 7.4), homogenised, and recentrifuged at 100,000× g for 60 min. Finally, the pellet was homogenised in 1–2 mL of Buffer C (10 mM Tris-HCl, 1 mM EDTA, and 4% glycerol (v/v)), and stored at −80 °C until use. The protein concentration of the microsomes was determined using the bicinchoninic acid (BCA) method [77].
(§3) CYP3A catalytic activity was determined using the erythromycin N-demethylation activity assay, as described [78]. The reaction mixture (final volume of 1 mL and final protein concentration of 1 mg) contained 500 µL of microsomes in 0.1 M phosphate buffer (pH 7.4) and 400 µL of erythromycin buffer (0.45 mM), and 50 µL of the test compound was pre-warmed at 37 °C for 2 min. The reaction was initiated with 50 µL of 2.5 mM nicotinamide adenine dinucleotide phosphate (NADP^+) and incubated for 30 min at 37 °C. […] The tubes were vortexed and left for 5 min (at room temperature), and then 330 µL of saturated barium hydroxide was added. The tubes were further vortexed and left for 5 min (at room temperature). The tubes were then centrifuged at 1800× g for 10 min. To 830 µL of the supernatant, 330 µL of Nash reagent (30% (w/v) ammonium acetate, 0.4% (v/v) acetylacetone) was added and further incubated for 30 min at 60 °C. The blank tube contained 330 µL of Nash reagent and 830 µL of Milli-Q water. […] The CYP3A activities were determined in nmol/mg/min using standard curve data. Results presented are the mean ± SEM of 3 independent experiments performed in duplicate unless otherwise stated.

CYP3A [2] = assay: CYP3A catalytic activity (erythromycin N-demethylation) in mouse liver microsomes; conditions: for Percent control catalytic activity at estimated IC50 / Percent control catalytic activity at estimated 2-fold IC50: mouse liver microsomes, initial screen n=1; for Percent control catalytic activity at estimated IC50: compounds without reported IC50 at 1 µM; for Percent control catalytic activity at estimated 2-fold IC50: compounds without reported IC50 at 5 µM; for inhibition of CYP3A catalytic activities at higher concentration: 10 µM; for % of control (catalytic activity at 2-fold IC50) / Catalytic activity at 2-fold IC50: compound at estimated 2-fold IC50 (5 µM where none reported)
Method: as §1, §2, §3

CYP3A [3] = assay: CYP3A catalytic activity (erythromycin N-demethylation) in possum liver microsomes; conditions: for Percent control catalytic activity at estimated IC50 / Percent control catalytic activity at estimated 2-fold IC50: possum liver microsomes, initial screen n=1; for Percent control catalytic activity at estimated IC50: compounds without reported IC50 at 1 µM; for Percent control catalytic activity at estimated 2-fold IC50: compounds without reported IC50 at 5 µM; for inhibition of CYP3A catalytic activities at higher concentration: 10 µM; for % of control (catalytic activity at 2-fold IC50) / Catalytic activity at 2-fold IC50: compound at estimated 2-fold IC50 (5 µM where none reported); for reduced catalytic activity of possum CYP3A, % of the control: mainly at 5 µM or an estimated 2-fold IC50, not significantly different
Method: as §1, §2, §3

CYP3A [4] = assay: CYP3A catalytic activity (erythromycin N-demethylation) in pooled human liver microsomes; conditions: for % of control (catalytic activity at 2-fold IC50) / Catalytic activity at 2-fold IC50: compound at estimated 2-fold IC50 (5 µM where none reported); for activity at 30 min: human, pH 7.4, probe erythromycin, % of control (catalytic activity at IC50), compound at estimated IC50 (1 µM where none reported)
Method: as §3

CCc1oc2ccccc2c1C(=O)c1cc(Br)c(O)c(Br)c1 [Benzbromarone]
% of control (catalytic activity at 2-fold IC50) (CYP3A [1]): 104 % of control
Catalytic activity at 2-fold IC50 (CYP3A [1]): 0.34 ± 0.01 nmol/mg/min
Percent control catalytic activity at estimated IC50 (CYP3A [2]): 97 percent control
Percent control catalytic activity at estimated 2-fold IC50 (CYP3A [2]): 96 percent control
inhibition of CYP3A catalytic activities at higher concentration (CYP3A [2]; mouse): did not show any significant inhibition
% of control (catalytic activity at 2-fold IC50) (CYP3A [2]; mouse): 97 % of control
Catalytic activity at 2-fold IC50 (CYP3A [2]; mouse): 0.57 ± 0.08 nmol/mg/min
Percent control catalytic activity at estimated IC50 (CYP3A [3]): 83 percent control
Percent control catalytic activity at estimated 2-fold IC50 (CYP3A [3]): 78 percent control
inhibition of CYP3A catalytic activities at higher concentration (CYP3A [3]; possum): did not show any significant inhibition
% of control (catalytic activity at 2-fold IC50) (CYP3A [3]; possum): 80 % of control
Catalytic activity at 2-fold IC50 (CYP3A [3]; possum): 0.26 ± 0.02 nmol/mg/min
reduced catalytic activity of possum CYP3A, % of the control (CYP3A [3]; possum): ~ 35 % of the control
% of control (catalytic activity at 2-fold IC50) (CYP3A [4]): 113 % of control
Catalytic activity at 2-fold IC50 (CYP3A [4]): 0.37 nmol/mg/min

C[C@]12CC[C@H](O)CC1=CC[C@@H]1[C@@H]2CC[C@]2(C)C(n3cnc4ccccc43)=CC[C@@H]12 [Galeterone]
Catalytic activity at 2-fold IC50 (CYP3A [1]): 0.36 ± 0.04 nmol/mg/min
Percent control catalytic activity at estimated IC50 (CYP3A [2]): 88 percent control
Percent control catalytic activity at estimated 2-fold IC50 (CYP3A [2]): 86 percent control
inhibition of CYP3A catalytic activities at higher concentration (CYP3A [2]; mouse): did not show any significant inhibition
% of control (catalytic activity at 2-fold IC50) (CYP3A [2]; mouse): 105 % of control
Catalytic activity at 2-fold IC50 (CYP3A [2]; mouse): 0.63 ± 0.10 nmol/mg/min
Percent control catalytic activity at estimated IC50 (CYP3A [3]): 76 percent control
Percent control catalytic activity at estimated 2-fold IC50 (CYP3A [3]): 80 percent control
inhibition of CYP3A catalytic activities at higher concentration (CYP3A [3]; possum): did not show any significant inhibition
% of control (catalytic activity at 2-fold IC50) (CYP3A [3]; possum): 83 % of control
Catalytic activity at 2-fold IC50 (CYP3A [3]; possum): 0.32 ± 0.02 nmol/mg/min
reduced catalytic activity of possum CYP3A, % of the control (CYP3A [3]; possum): ~ 35 % of the control
% of control (catalytic activity at 2-fold IC50) (CYP3A [4]): 114 % of control
Catalytic activity at 2-fold IC50 (CYP3A [4]): 0.61 nmol/mg/min
activity at 30 min (CYP3A [4]): 99%

COc1ccc(/C=C/c2cc(O)cc(O)c2)cc1O [Rhapontigenin]
% of control (catalytic activity at 2-fold IC50) (CYP3A [1]): 101 % of control
Catalytic activity at 2-fold IC50 (CYP3A [1]): 0.30 ± 0.03 nmol/mg/min
Percent control catalytic activity at estimated IC50 (CYP3A [2]): 116 percent control
Percent control catalytic activity at estimated 2-fold IC50 (CYP3A [2]): 157 percent control
% of control (catalytic activity at 2-fold IC50) (CYP3A [2]; mouse): 144 % of control
Catalytic activity at 2-fold IC50 (CYP3A [2]; mouse): 0.52 ± 0.05 nmol/mg/min
Percent control catalytic activity at estimated IC50 (CYP3A [3]): 103 percent control
Percent control catalytic activity at estimated 2-fold IC50 (CYP3A [3]): 103 percent control
% of control (catalytic activity at 2-fold IC50) (CYP3A [3]; possum): 124 % of control
Catalytic activity at 2-fold IC50 (CYP3A [3]; possum): 0.40 ± 0.03 nmol/mg/min
% of control (catalytic activity at 2-fold IC50) (CYP3A [4]): 110 % of control
Catalytic activity at 2-fold IC50 (CYP3A [4]): 0.53 nmol/mg/min
activity at 30 min (CYP3A [4]): 106%

C=C[C@@H]1C2=CCOC(=O)C2=CO[C@H]1O[C@@H]1O[C@H](CO)[C@@H](O)[C@H](O)[C@H]1O [Gentiopicroside]
% of control (catalytic activity at 2-fold IC50) (CYP3A [1]): 114 % of control
Catalytic activity at 2-fold IC50 (CYP3A [1]): 0.32 ± 0.03 nmol/mg/min
Percent control catalytic activity at estimated IC50 (CYP3A [2]): 92 percent control
Percent control catalytic activity at estimated 2-fold IC50 (CYP3A [2]): 85 percent control
inhibition of CYP3A catalytic activities at higher concentration (CYP3A [2]; mouse): did not show any significant inhibition
% of control (catalytic activity at 2-fold IC50) (CYP3A [2]; mouse): 97 % of control
Catalytic activity at 2-fold IC50 (CYP3A [2]; mouse): 0.56 ± 0.12 nmol/mg/min
Percent control catalytic activity at estimated IC50 (CYP3A [3]): 98 percent control
Percent control catalytic activity at estimated 2-fold IC50 (CYP3A [3]): 83 percent control
inhibition of CYP3A catalytic activities at higher concentration (CYP3A [3]; possum): did not show any significant inhibition
% of control (catalytic activity at 2-fold IC50) (CYP3A [3]; possum): 82 % of control
Catalytic activity at 2-fold IC50 (CYP3A [3]; possum): 0.29 ± 0.02 nmol/mg/min
reduced catalytic activity of possum CYP3A, % of the control (CYP3A [3]; possum): ~ 35 % of the control
% of control (catalytic activity at 2-fold IC50) (CYP3A [4]): 122 % of control
Catalytic activity at 2-fold IC50 (CYP3A [4]): 0.54 nmol/mg/min

O=C1c2ccccc2C(=O)c2c1ccc(O)c2O [Alizarin]
% of control (catalytic activity at 2-fold IC50) (CYP3A [1]): 94 % of control
Catalytic activity at 2-fold IC50 (CYP3A [1]): 0.30 ± 0.04 nmol/mg/min
Percent control catalytic activity at estimated IC50 (CYP3A [2]): 91 percent control
Percent control catalytic activity at estimated 2-fold IC50 (CYP3A [2]): 89 percent control
inhibition of CYP3A catalytic activities at higher concentration (CYP3A [2]; mouse): did not show any significant inhibition
% of control (catalytic activity at 2-fold IC50) (CYP3A [2]; mouse): 96 % of control
Catalytic activity at 2-fold IC50 (CYP3A [2]; mouse): 0.57 ± 0.06 nmol/mg/min
Percent control catalytic activity at estimated IC50 (CYP3A [3]): 70 percent control
Percent control catalytic activity at estimated 2-fold IC50 (CYP3A [3]): 77 percent control
inhibition of CYP3A catalytic activities at higher concentration (CYP3A [3]; possum): did not show any significant inhibition
% of control (catalytic activity at 2-fold IC50) (CYP3A [3]; possum): 84 % of control
Catalytic activity at 2-fold IC50 (CYP3A [3]; possum): 0.27 ± 0.01 nmol/mg/min
reduced catalytic activity of possum CYP3A, % of the control (CYP3A [3]; possum): ~ 35 % of the control
% of control (catalytic activity at 2-fold IC50) (CYP3A [4]): 98 % of control
Catalytic activity at 2-fold IC50 (CYP3A [4]): 0.57 nmol/mg/min

CC(=O)c1ccccc1O [2'-Hydroxyacetophenone]
% of control (catalytic activity at 2-fold IC50) (CYP3A [1]): 102 % of control
Catalytic activity at 2-fold IC50 (CYP3A [1]): 0.36 ± 0.05 nmol/mg/min
% of control (catalytic activity at IC50) (CYP3A [1]; compound at estimated IC50 (1 µM where none reported)): 101 % of control
Percent control catalytic activity at estimated IC50 (CYP3A [2]): 112 percent control
Percent control catalytic activity at estimated 2-fold IC50 (CYP3A [2]): 80 percent control
% of control (catalytic activity at 2-fold IC50) (CYP3A [2]; mouse): 75 % of control
Catalytic activity at 2-fold IC50 (CYP3A [2]; mouse): 0.35 ± 0.05 nmol/mg/min
% of control (catalytic activity at IC50) (CYP3A [2]; mouse, compound at estimated IC50 (1 µM where none reported)): 129 % of control
Percent control catalytic activity at estimated IC50 (CYP3A [3]): 108 percent control
Percent control catalytic activity at estimated 2-fold IC50 (CYP3A [3]): 105 percent control
% of control (catalytic activity at 2-fold IC50) (CYP3A [3]; possum): 102 % of control
Catalytic activity at 2-fold IC50 (CYP3A [3]; possum): 0.29 ± 0.05 nmol/mg/min
% of control (catalytic activity at IC50) (CYP3A [3]; possum, compound at estimated IC50 (1 µM where none reported)): 120 % of control
